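Grown in 96-well plates, cells were treated for 48 hours with each compound at five concentrations. Insufficient inhibition: endpoint recorded as highest concentration tested. TGI: concentration producing complete growth inhibition.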 Where a SMILES comes first, the peptide text is derived from it. [ ]: non-standard residue; d: D form. The star is where a group is joined. ξ: configuration not given here. ξPhe(4-NO2) = NC(Cc1ccc([N+](=O)[O-])cc1)C(=O)O; Boc = CC(C)(C)OC(=O)*; OBn = c1ccc(CO*)cc1
How the values were obtained:
Assay in all cases: DTP human tumour cell line panel, 48 h
[1] = tested on: SN12C renal
[2] = tested on: MDA-N
[3] = tested on: TK-10 renal
[4] = tested on: ACHN renal
[5] = tested on: MOLT-4 leukemia
[6] = tested on: SNB-19 CNS

| SMILES | TGI [1] [µM] | TGI [2] [µM] | TGI [3] [µM] | TGI [4] [µM] | TGI [5] [µM] | TGI [6] [µM] |
| --- | --- | --- | --- | --- | --- | --- |
| CN1CC2=C(NC(=S)NC2c2ccc(Cl)cc2)/C(=C/c2ccc(Cl)cc2)C1 (stereo unspecified) | 36.4 | 34.9 | > 100 | 57.9 | 30.2 | – |
| CC(C)C[C@H](NC(=O)CCc1ccccc1)B(O)O | 61.5 | 7.27 | 55.8 | > 100 | 11.4 | > 100 |
| C[C@]12CC(c3ccccc3O1)C(C#N)C(=O)N2 (stereo partly specified) | > 100 | > 100 | – | > 100 | > 100 | > 100 |
| CCCC(=O)N/S(=N/S(=O)(=O)c1ccc(Cl)cc1)C(Cl)(Cl)Cl (stereo unspecified) | > 100 | > 100 | > 100 | > 100 | > 100 | > 100 |
| Nc1nc(Cl)cc(NCC2(CO)CCC2)n1 | > 100 | > 100 | > 100 | > 100 | > 100 | > 100 |
| Cc1[nH]n(-c2nc3c(c(=O)[nH]2)CCC3)c(=O)c1CCO | > 100 | > 100 | > 100 | > 100 | > 100 | > 100 |
| C=CCNC(=O)/C(Cc1cc(Br)c(OC)c(Br)c1O)=N\O | – | 1.07 | 64.8 | > 100 | > 100 | 58.9 |
| CCCCSC1=N/C(=C\c2ccco2)C(=O)N1 | > 100 | > 100 | > 100 | > 100 | > 100 | > 100 |
| COc1ccc(-c2c3c(n(C4OC(CO)C(O)C(O)C4O)c(=S)c2C#N)CC(C)(C)CC3=O)cc1 (stereo unspecified) | > 100 | > 100 | > 100 | > 100 | > 100 | > 100 |
| C=C(C)[C@@H]1CC[C@@H](C)[C@](O)([C@@H]2C[C@@H]([C@H](COC(=O)c3ccccc3)OC(=O)c3ccccc3)OC2=O)C1 | > 100 | > 100 | > 100 | > 100 | > 100 | > 100 |
| Cc1cnc2[nH]c(-c3ccc(F)cc3)cc(=O)c2c1 | > 100 | 8.87 | > 100 | > 100 | > 91.5 | > 100 |
| COc1cc2c(cc1OC)C1C(O)C(OC)C=C3CC[N+](C)(C2)C31 (stereo unspecified) | > 100 | > 100 | > 100 | > 100 | > 100 | > 100 |
| CS(=O)(=O)c1[nH]nc2[nH]c(=O)[nH]c(=O)c12 | > 10 | > 10 | > 10 | > 10 | > 10 | > 10 |
| CC(C)(C)OC(=O)NC(Cc1ccc([N+](=O)[O-])cc1)C(=O)NCC(=O)OCc1ccccc1 (stereo unspecified) (Boc-[ξPhe(4-NO2)]-Gly-OBn) | 45.9 | 39.8 | > 100 | 48.4 | 48.1 | > 100 |
